Key:
Cannabinoid receptor 1 = Cannabinoid receptor 1 (Homo sapiens, UniProt P21554); type: cell membranes, Chem-1, Membrane; conditions: chem-1; note: in other assays of this panel Not Active means under 50% inhibition at 10 µM
[1] = target: T1, Alpha-1A adrenergic receptor (Rattus norvegicus, UniProt P43140); assay: DRUGMATRIX: Alpha-1A adrenergic receptor radioligand binding (ligand: prazosin); type: cell membranes, Wistar, Submaxillary gland, Membrane; conditions: Not Active = under 50% inhibition at 10 µM
T1 sequence (P43140 whole entry): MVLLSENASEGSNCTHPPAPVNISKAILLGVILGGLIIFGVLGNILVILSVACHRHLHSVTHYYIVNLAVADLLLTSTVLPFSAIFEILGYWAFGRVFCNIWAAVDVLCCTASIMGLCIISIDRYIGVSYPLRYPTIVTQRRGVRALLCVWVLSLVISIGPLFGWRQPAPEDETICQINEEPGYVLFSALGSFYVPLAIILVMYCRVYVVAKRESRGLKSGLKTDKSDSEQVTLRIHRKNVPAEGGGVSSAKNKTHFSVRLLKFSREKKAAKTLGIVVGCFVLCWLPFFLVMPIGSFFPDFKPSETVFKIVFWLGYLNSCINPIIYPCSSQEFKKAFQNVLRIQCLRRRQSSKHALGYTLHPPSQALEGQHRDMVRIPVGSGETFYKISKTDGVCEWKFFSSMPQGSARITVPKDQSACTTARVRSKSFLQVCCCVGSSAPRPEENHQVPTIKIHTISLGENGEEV

[2] = target: Sigma non-opioid intracellular receptor 1 (Homo sapiens, UniProt Q99720); assay: DRUGMATRIX: Sigma1 radioligand binding (ligand: [3H] Haloperidol); type: cell membranes, Jurkat, Membrane; conditions: jurkat; Not Active = under 50% inhibition at 10 µM
[3] = DRUGMATRIX: Sigma2 radioligand binding (ligand: [3H] Ifenprodil); type: cell membranes, Rattus norvegicus, Wistar, Brain, Membrane; conditions: Not Active = under 50% inhibition at 10 µM
Interstitial collagenase = target: T2, Interstitial collagenase (Homo sapiens, UniProt P03956); assay: biochemical; type: tissue-based, Rheumatoid synovial fibroblasts;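 note: MMP-1 enzyme inhibition assay using a peptide substrate; in other assays of this panel Not Active means under 50% inhibition at 10 µM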
T2 sequence (P03956 whole entry): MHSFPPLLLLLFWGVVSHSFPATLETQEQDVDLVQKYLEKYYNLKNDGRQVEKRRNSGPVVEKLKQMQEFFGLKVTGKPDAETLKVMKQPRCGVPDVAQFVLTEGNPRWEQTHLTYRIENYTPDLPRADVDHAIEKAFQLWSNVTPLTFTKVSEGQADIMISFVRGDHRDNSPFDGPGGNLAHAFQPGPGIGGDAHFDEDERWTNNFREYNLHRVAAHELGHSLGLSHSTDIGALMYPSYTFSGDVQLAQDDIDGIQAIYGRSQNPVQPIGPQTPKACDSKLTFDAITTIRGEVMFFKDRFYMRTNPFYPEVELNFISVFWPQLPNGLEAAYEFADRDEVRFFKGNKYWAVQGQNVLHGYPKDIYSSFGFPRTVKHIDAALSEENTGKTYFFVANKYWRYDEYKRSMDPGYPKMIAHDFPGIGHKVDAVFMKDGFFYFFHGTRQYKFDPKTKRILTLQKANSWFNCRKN

[4] = target: 5-hydroxytryptamine receptor 2B (Homo sapiens, UniProt P41595); type: cell membranes, CHO-K1, Membrane; conditions: cho-k1; note: in other assays of this panel Not Active means under 50% inhibition at 10 µM
[5] = target: T3, Neuropeptide Y receptor type 1 (Homo sapiens, UniProt P25929); type: cell membranes, Membrane; conditions: sk-n-mc; note: in other assays of this panel Not Active means under 50% inhibition at 10 µM
T3 sequence (P25929 whole entry): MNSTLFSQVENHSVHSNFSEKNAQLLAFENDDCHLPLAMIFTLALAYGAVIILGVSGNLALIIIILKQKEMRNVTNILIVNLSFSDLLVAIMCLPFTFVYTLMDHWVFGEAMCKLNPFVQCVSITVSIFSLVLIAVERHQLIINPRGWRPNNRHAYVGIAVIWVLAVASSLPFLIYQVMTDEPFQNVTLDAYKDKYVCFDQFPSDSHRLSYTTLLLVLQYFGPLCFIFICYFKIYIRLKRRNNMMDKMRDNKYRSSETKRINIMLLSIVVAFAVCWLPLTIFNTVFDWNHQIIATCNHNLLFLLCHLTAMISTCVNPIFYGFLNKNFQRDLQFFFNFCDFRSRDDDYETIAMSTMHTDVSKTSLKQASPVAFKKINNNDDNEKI

[6] = target: Epidermal growth factor receptor (Homo sapiens, UniProt P00533); assay: DRUGMATRIX: Protein Tyrosine Kinase, EGF Receptor enzyme inhibition (substrate: Poly(Glu:Tyr)); type: cell-based, Insect cells; conditions: Not Active = under 50% inhibition at 10 µM
[7] = target: Voltage-gated inwardly rectifying potassium channel KCNH2 (Homo sapiens, UniProt Q12809); conditions: hek293; note: in other assays of this panel Not Active means under 50% inhibition at 10 µM
Voltage-gated inwardly rectifying potassium channel KCNH2, sequence (Q12809 whole entry): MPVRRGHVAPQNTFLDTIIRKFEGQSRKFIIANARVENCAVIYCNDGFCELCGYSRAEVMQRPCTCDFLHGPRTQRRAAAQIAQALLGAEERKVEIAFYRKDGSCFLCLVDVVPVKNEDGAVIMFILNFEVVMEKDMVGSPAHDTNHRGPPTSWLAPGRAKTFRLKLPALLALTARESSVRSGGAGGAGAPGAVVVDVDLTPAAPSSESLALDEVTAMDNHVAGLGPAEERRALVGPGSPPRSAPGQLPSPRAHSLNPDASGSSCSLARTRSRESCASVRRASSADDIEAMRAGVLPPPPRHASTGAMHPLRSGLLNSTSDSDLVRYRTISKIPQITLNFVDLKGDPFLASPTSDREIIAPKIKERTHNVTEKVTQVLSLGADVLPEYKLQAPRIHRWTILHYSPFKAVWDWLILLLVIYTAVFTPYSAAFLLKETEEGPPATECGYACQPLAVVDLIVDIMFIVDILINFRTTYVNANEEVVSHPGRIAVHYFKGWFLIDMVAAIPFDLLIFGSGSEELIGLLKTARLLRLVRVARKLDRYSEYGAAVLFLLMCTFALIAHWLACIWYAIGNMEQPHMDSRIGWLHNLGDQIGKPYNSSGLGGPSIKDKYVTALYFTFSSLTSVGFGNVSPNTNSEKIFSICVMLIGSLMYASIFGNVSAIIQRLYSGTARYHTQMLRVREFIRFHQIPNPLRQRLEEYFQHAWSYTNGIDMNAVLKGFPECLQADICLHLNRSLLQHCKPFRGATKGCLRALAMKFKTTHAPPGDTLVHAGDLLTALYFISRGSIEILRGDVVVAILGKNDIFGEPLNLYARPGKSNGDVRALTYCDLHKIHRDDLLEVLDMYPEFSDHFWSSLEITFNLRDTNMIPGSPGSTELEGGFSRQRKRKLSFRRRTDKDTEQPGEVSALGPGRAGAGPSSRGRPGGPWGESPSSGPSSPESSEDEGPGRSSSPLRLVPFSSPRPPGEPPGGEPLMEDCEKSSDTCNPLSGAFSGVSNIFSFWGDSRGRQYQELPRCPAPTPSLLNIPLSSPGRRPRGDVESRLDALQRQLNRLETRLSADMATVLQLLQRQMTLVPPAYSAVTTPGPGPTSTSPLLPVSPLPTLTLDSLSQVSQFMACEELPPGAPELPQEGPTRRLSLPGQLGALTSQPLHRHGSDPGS

Cannabinoid receptor 1, sequence (P21554 whole entry): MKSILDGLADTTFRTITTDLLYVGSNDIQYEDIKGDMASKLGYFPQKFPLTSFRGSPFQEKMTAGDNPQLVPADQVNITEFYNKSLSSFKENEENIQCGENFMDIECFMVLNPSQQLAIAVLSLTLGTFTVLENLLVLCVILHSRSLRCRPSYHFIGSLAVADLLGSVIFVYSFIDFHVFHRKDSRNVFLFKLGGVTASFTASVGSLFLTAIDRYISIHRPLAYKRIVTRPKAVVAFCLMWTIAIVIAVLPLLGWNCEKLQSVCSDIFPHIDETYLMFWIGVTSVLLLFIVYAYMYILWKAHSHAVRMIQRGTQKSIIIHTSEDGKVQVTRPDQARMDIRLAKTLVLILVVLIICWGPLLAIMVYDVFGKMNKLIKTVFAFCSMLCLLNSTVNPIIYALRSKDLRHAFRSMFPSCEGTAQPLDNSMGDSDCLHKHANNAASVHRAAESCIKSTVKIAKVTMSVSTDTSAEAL
Epidermal growth factor receptor, sequence (P00533 whole entry): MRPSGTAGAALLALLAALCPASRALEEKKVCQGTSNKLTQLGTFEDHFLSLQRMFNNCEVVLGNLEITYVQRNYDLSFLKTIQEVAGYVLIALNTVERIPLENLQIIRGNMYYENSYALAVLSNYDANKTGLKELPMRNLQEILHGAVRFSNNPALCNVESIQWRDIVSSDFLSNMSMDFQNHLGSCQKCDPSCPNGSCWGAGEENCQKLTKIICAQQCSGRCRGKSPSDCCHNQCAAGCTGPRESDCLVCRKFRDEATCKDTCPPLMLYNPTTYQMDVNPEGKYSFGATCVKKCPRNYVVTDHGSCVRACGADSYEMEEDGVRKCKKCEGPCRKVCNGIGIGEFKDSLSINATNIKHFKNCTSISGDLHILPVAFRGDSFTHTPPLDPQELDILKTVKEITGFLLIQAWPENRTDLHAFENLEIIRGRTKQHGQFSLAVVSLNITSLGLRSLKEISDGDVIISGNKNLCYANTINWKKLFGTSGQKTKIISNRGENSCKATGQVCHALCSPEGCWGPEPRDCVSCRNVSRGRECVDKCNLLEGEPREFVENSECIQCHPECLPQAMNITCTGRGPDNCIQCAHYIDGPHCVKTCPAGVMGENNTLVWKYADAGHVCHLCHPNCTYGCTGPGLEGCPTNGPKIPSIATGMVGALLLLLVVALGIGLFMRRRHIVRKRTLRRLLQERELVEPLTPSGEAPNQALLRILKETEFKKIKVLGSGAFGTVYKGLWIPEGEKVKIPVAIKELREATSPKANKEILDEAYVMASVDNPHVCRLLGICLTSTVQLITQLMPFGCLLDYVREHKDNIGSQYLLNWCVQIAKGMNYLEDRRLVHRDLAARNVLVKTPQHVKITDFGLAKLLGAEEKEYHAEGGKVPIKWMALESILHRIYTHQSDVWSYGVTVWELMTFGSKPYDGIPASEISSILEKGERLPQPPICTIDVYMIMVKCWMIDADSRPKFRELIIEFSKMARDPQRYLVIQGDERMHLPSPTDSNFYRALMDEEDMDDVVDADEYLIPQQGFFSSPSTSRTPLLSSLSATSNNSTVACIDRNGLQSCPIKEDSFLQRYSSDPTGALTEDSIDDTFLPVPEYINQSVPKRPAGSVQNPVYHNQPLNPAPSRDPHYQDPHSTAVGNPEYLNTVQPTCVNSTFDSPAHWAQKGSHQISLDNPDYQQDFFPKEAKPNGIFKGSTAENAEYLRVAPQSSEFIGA
Sigma non-opioid intracellular receptor 1, sequence (Q99720 whole entry): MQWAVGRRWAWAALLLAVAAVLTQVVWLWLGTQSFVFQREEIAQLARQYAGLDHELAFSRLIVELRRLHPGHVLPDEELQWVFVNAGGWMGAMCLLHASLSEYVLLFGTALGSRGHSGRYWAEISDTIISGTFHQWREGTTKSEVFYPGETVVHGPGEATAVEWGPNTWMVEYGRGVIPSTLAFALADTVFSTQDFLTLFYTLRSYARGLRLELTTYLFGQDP
5-hydroxytryptamine receptor 2B, sequence (P41595 whole entry): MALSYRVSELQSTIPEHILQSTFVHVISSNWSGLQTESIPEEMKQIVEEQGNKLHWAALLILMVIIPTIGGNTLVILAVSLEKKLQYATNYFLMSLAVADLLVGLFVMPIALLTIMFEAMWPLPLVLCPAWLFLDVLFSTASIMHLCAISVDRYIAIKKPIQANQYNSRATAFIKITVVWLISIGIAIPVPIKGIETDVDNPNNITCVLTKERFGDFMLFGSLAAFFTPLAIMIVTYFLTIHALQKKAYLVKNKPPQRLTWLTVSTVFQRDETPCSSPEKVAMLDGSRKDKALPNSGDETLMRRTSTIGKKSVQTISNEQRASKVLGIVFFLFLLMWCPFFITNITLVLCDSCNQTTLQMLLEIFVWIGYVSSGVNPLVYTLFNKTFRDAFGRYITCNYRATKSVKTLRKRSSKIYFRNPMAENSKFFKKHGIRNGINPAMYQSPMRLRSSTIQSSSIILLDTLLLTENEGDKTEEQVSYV

COc1cc(NS(=O)(=O)c2ccc(N)cc2)nc(OC)n1 [SULFADIMETHOXINE]
Not Active: IC50 (Cannabinoid receptor 1) | IC50 [1] | IC50 [2] | IC50 [3] | Ki [3] | IC50 (Interstitial collagenase) | IC50 [4] | IC50 [5] | IC50 ([6]; insect cells) | IC50 [7] | Ki [7]

Cc1cc(C)nc(NS(=O)(=O)c2ccc(N)cc2)n1 [SULFAMETHAZINE]
Not Active: IC50 (Cannabinoid receptor 1) | IC50 [1] | IC50 [2] | IC50 [3] | Ki [3] | IC50 (Interstitial collagenase) | IC50 [4] | IC50 [5] | IC50 ([6]; insect cells) | IC50 [7] | Ki [7]

C[C@]1(Cn2ccnn2)[C@H](C(=O)O)N2C(=O)C[C@H]2S1(=O)=O [TAZOBACTAM]
Not Active: IC50 (Cannabinoid receptor 1) | IC50 [1] | IC50 [2] | IC50 [3] | Ki [3] | IC50 (Interstitial collagenase) | IC50 [4] | IC50 [5] | IC50 ([6]; insect cells) | IC50 [7] | Ki [7]

CN1C(C(=O)Nc2ccccn2)=C(O)c2sccc2S1(=O)=O [TENOXICAM]
Not Active: IC50 (Cannabinoid receptor 1) | IC50 [1] | IC50 [2] | IC50 [3] | Ki [3] | IC50 (Interstitial collagenase) | IC50 [4] | IC50 [5] | IC50 ([6]; insect cells) | IC50 [7] | Ki [7]

O=C1CCC(N2C(=O)c3ccccc3C2=O)C(=O)N1 (stereo unspecified) [THALIDOMIDE]
Not Active: IC50 (Cannabinoid receptor 1) | IC50 [1] | IC50 [2] | IC50 [3] | Ki [3] | IC50 (Interstitial collagenase) | IC50 [4] | IC50 [5] | IC50 ([6]; insect cells) | IC50 [7] | Ki [7]

Cc1cccc(Nc2ccncc2S(=O)(=O)NC(=O)NC(C)C)c1 [TORSEMIDE]
Not Active: IC50 (Cannabinoid receptor 1) | IC50 [1] | IC50 [2] | IC50 [3] | Ki [3] | IC50 (Interstitial collagenase) | IC50 [4] | IC50 [5] | IC50 ([6]; insect cells) | IC50 [7] | Ki [7]

CC(C)C[C@H](NC(=O)[C@@H](O)[C@H](N)Cc1ccccc1)C(=O)O [UBENIMEX]
Not Active: IC50 (Cannabinoid receptor 1) | IC50 [1] | IC50 [2] | IC50 [3] | Ki [3] | IC50 (Interstitial collagenase) | IC50 [4] | IC50 [5] | IC50 ([6]; insect cells) | IC50 [7] | Ki [7]

Cc1onc(-c2ccccc2)c1-c1ccc(S(N)(=O)=O)cc1 [VALDECOXIB]
Not Active: IC50 (Cannabinoid receptor 1) | IC50 [1] | IC50 [2] | IC50 [3] | Ki [3] | IC50 (Interstitial collagenase) | IC50 [4] | IC50 [5] | IC50 ([6]; insect cells) | IC50 [7] | Ki [7]

CC[C@]1(O)C[C@@H]2CN(CCc3c([nH]c4ccccc34)[C@@](C(=O)OC)(c3cc4c(cc3OC)N(C)[C@H]3[C@@](O)(C(=O)OC)[C@H](OC(C)=O)[C@]5(CC)C=CCN6CC[C@]43[C@@H]65)C2)C1 [VINBLASTINE]
Not Active: IC50 (Cannabinoid receptor 1) | IC50 [1] | IC50 [2] | IC50 [3] | Ki [3] | IC50 (Interstitial collagenase) | IC50 [4] | IC50 [5] | IC50 ([6]; insect cells) | IC50 [7] | Ki [7]

CC(=O)CC(c1ccccc1)c1c(O)c2ccccc2oc1=O (stereo unspecified) [WARFARIN]
Not Active: IC50 (Cannabinoid receptor 1) | IC50 [1] | IC50 [2] | IC50 [3] | Ki [3] | IC50 (Interstitial collagenase) | IC50 [4] | IC50 [5] | IC50 ([6]; insect cells) | IC50 [7] | Ki [7]

[Cl-].[Cl-].[Zn+2] [ZINC CHLORIDE]
Not Active: IC50 (Cannabinoid receptor 1) | IC50 [1] | IC50 [2] | IC50 [3] | Ki [3] | IC50 (Interstitial collagenase) | IC50 [4] | IC50 [5] | IC50 [7] | Ki [7]
2190 nM: IC50 ([6]; read-out: IC50)
